For 50 molecules, logD results are on record in the SangsterLogP compilation.

This data set is described as follows: method code SF-AS, from PMID: 6686445. The note with it: pH 7.4.

By logD is commonly meant lipophilicity at a set pH, counting ionised and neutral species. `COCN1C(=O)CN=C(c2ccccc2Cl)c2cc(Cl)ccc21` registered a logD of 3.23.

Molecule `O=C1CN=C(c2ccccc2)c2cc(F)ccc2N1` returned a logD of 2.32. The figure for `O=C1CN=C(c2ccccc2F)c2ccccc2N1` is 2.38. The figure for `O=C1CN=C(c2ccccc2)c2ccccc2N1` is 2.18. In the case of `CC(=O)c1ccc2c(c1)C(c1ccccc1F)=NCC(=O)N2` it was 1.75; in that of `CN1C(=O)CN=C(c2c(Cl)cccc2Cl)c2cc(Cl)ccc21`, 3.04.

The molecule `CN1C(=O)CN=C(c2ccccc2F)c2cc(I)ccc21` came in with a logD of 3.14. The figure for `COc1ccccc1C1=NCC(=O)Nc2ccc(Cl)cc21` is 2.63; for `CSCN1C(=O)CN=C(c2ccccc2)c2cc(N)ccc21` it is 1.92; for `O=C1CN=C(c2cccc(C(F)(F)F)c2)c2ccccc2N1` it is 3.19. The figure for `O=C1CN=C(c2ccccc2Br)c2cc(Cl)ccc2N1` is 3.17. Molecule `CN1C(=O)CN=C(c2ccc(Cl)cc2)c2cc(F)ccc21` gave a logD of 3.1.

The molecule `CSCN1C(=O)CN=C(c2ccccc2)c2cc(Cl)ccc21` gave a logD of 3.32. In the case of `O=C1CN=C(c2ccccc2C(F)(F)F)c2ccccc2N1` it was 2.47; in that of `COc1ccc2c(c1)C(c1ccccc1)=NCC(=O)N2`, 2.24.

Take `O=C1CN=C(c2ccccc2F)c2cc(Cl)ccc2N1`: the logD was determined as 2.7.

Consider `O=C1CN=C(c2ccccc2[N+](=O)[O-])c2cc([N+](=O)[O-])ccc2N1`, for which the logD came to 1.61. For `O=C1CN=C(c2c(F)cccc2F)c2cc(Cl)ccc2N1`, the logD came to 2.68.

Turning to `COCN1C(=O)CN=C(c2ccccc2F)c2cc(N)ccc21`, the logD stood at 1.31.

In turn, `O=C1CN=C(c2ccccc2F)c2cc(Cl)ccc2N1CC(O)CO` (stereo not given) had a logD of 1.51.

`O=C1CN=C(c2ccccc2Cl)c2cc(Cl)ccc2N1` showed a logD of 3.15. In the case of `Cc1ccccc1C1=NCC(=O)Nc2ccc(Cl)cc21` it was 3.12; in that of `Cc1ccc2c(c1)C(c1ccccc1)=NCC(=O)N2`, 2.62; in that of `O=C1CN=C(c2c(F)cccc2F)c2ccc(Cl)cc2N1`, 2.88. The figure for `CN1C(=O)CN=C(c2ccccc2Cl)c2cc(Cl)ccc21` is 3.12; for `CN1C(=O)CN=C(c2ccccc2F)c2cc(N)ccc21` it is 1.3; for `O=C1CN=C(c2ccccc2F)c2cc(Cl)c(Cl)cc2N1` it is 3.63.

`COCN1C(=O)C(O)N=C(c2ccccc2)c2cc(N)ccc21` (stereo not given) had a logD of 0.75. In the case of `COCN1C(=O)CN=C(c2ccccc2)c2cc(Cl)ccc21` it was 2.86; in that of `O=C1CN=C(c2ccccc2)c2cc([N+](=O)[O-])ccc2N1CC(O)CO` (stereo not given), 0.96. In the case of `O=C1CN=C(c2ccc(F)cc2)c2cc(Cl)ccc2N1` it was 2.9; in that of `COc1cccc(C2=NCC(=O)Nc3ccc(Cl)cc32)c1`, 3.14; in that of `CN1C(=O)CN=C(c2ccccc2)c2cc(N)ccc21`, 1.46. In the case of `COc1ccc(C2=NCC(=O)N(C)c3ccc(Cl)cc32)cc1` it was 3.15. `O=C1CN=C(c2ccccc2)c2cc(C(F)(F)F)ccc2N1` returned a logD of 3.1. In the case of `CC1N=C(c2ccccc2Cl)c2cc(Cl)ccc2N(C)C1=O` (stereo not given) it was 3.4. The figure for `CSc1ccc2c(c1)C(c1ccccc1)=NCC(=O)N2C` is 2.95; for `CCN1C(=O)CN=C(c2ccccc2)c2cc(N)ccc21` it is 1.81; for `O=C1CN=C(c2ccccc2F)c2cc([N+](=O)[O-])ccc2N1` it is 2.15. In the case of `O=C1CN=C(c2ccccc2C(F)(F)F)c2cc([N+](=O)[O-])ccc2N1` it was 2.51. As for `CCN1C(=O)CN=C(c2ccccc2)c2cc(Cl)ccc21`, the logD was determined as 3.21. The figure for `N#Cc1ccc2c(c1)C(c1ccccc1)=NCC(=O)N2` is 1.82; for `COCN1C(=O)CN=C(c2ccccc2)c2cc(N)ccc21` it is 1.32; for `O=C1CN=C(c2ccc(C(F)(F)F)cc2)c2ccccc2N1` it is 3.34.

Molecule `CSc1ccccc1C1=NCC(=O)Nc2ccc(Cl)cc21` gave a logD of 2.99. The figure for `COCN1C(=O)CN=C(c2ccccc2)c2cc([N+](=O)[O-])ccc21` is 2.05; for `C[C@@H]1N=C(c2ccccc2Cl)c2cc([N+](=O)[O-])ccc2NC1=O` it is 2.72. The figure for `CN1C(=O)CN=C(c2ccccc2F)c2cc(Cl)ccc21` is 2.75; for `Cc1ccccc1C1=NCC(=O)N(C)c2ccc(Cl)cc21` it is 3.03; for `CCc1ccc2c(c1)C(c1ccccc1F)=NCC(=O)N2` it is 2.92.
